From patent US9250249B2, “Autophagy and phospholipidosis pathway assays” (Enzo Biochem, Inc., priority 2008, dated 2016)
Like-named read-outs stand apart in the source and are kept apart here. One block for each compound: values may come before it.

Key:
[1] = test system: U2OS cells; assay: Fluorescence microplate-based lysosomal perturbation assay (Dye 1 fluorescence), incl. ICCB library screen; conditions: for Relative Lyso Stain (intensity of Dye 1 fluorescence of treated cells compared to the untreated control): 18 hours, single concentration per compound; for vacuolation / expansion of lysosomal compartment detected by Dye 1 assay: Dye 1 stained post drug incubation; for hit call in ICCB library screen (Dye 1 accumulation): ICCB known bioactives library screen
Method: In order to increase throughput and reduce handling time, the fluorescence microscopy-based lysosomal perturbation assay was scaled up to a 96-well microplate plate assay format and analyzed using a fluorescence microplate reader.
(§2) Fluorescence intensity of the cells cultured on the 96-well plates was measured using a FLUOstar OPTIMA Multifunction Microplate Reader (BMG LabTech, Offenburg, Germany). […] Fluorescence intensity was expressed as percentage of the vehicle control value.
(§3) In the preliminary screen, test agents were employed at a single dose in an effort to identify any potential lysosome-modifying agents.

[2] = test system: U2OS cells; assay: Cell number per well by Hoechst 33342 fluorescence (generalized compound toxicity); conditions: for Relative Hoechst Stain (intensity of Hoechst 33342 fluorescence of treated cells compared to the untreated control; number of cells remaining): 18 hours, single concentration per compound; for generalized cellular toxicity (loss of cells / decrease in Hoechst 33342 signal): greater than 30% decrease in cell number flagged as toxic
Method: as §2, §3

[3] = test system: U2OS cells; assay: Lipid-Tox fluorescent phospholipid analog-based phospholipidosis assay; format: cell-based, human; conditions: 24 hours co-incubation with Lipid-Tox dye and drug
Method: Many assays of phospholipidosis, including the Lipid-Tox assay (Invitrogen, Carlsbad, Calif.), are based upon co-incubating cells with a fluorescent phospholipid analog for an extended period of time, along with the drug or test agent being evaluated, and then monitoring signal generation in fixed and permeabilized cells. Dye 1 is not a fluorescent phospholipid analog, but instead is a cationic amphiphilic fluorophore tracer. Cells are incubated with the drug or test agent in isolation and then briefly treated with the tracer dye before evaluation in live cells. […] Choloroquine, a prototypical phospholipidosis-inducing agent, and bafilomycin A, an agent well known to induce the accumulation of autophagosomes, were evaluated using both Dye 1 and Lipid-Tox dye-based assays (FIG. 3). […] Cells stained with Lipid-Tox dye (solid triangles dash-dot line) were incubated in the presence of the fluorescent lipid for 24 hours during treatment with the drugs.

[4] = test system: U2OS cells; assay: Multiplexed CF-PE / Dye 1 / Hoechst 33342 microplate assay distinguishing phospholipidosis from autophagy pathway inhibition; format: cell-based, human; conditions: 24 h with CF-PE medium and test compound; for green signal (CF-PE) relative to vehicle-treated controls: ex 492 nm, em 517 nm; for red signal (Dye 1) relative to vehicle-treated controls: then Dye 1 15 min
Method: For example, CF-PE was suspended in ethanol and diluted in the cell culture medium (McCoy's 5a modified medium, as described in Example 3) to give a solution (CF-PE medium) with final concentration of 50 μM (0.46% ethanol). […] medium was then sonicated and filtered through a […] filter. The prepared was then applied to U2OS cells growing in a 96-well microplate. After an equilibration period of 24 h, the cell culture medium was replaced with CF-PE medium with or without each test compound, and the cells were incubated at 37° C. for an additional 24 h. After incubation, the cells were rinsed with medium and further incubated with the same medium containing Dye 1 and Hoechst 33342 dye for an additional 15 min at 37° C. in 5% CO2 atmosphere.
Fluorescence signal was determined using a standard microplate reader, as described in example 4, except that CF-PE was additionally read at an excitation wavelength of 492 nm and an emission wavelength of 517 nm. […] Generalized cytotoxicity is evident as a substantial decrease in blue signal (≧30%) relative to vehicle-treated control cells.

[5] = pH dependence of Dye 1 fluorescence; format: physicochemical; conditions: pH range of 4.0 to 9.0
[6] = test system: cultured cells; conditions: high micromolar concentrations; cited from earlier work
[7] = test system: U2OS cells; conditions: for Relative Hoechst Stain (intensity of Hoechst 33342 fluorescence of treated cells compared to the untreated control; number of cells remaining): human, 18 h
Method: as §2, §3

[8] = test system: U-2-OS human osteosarcoma cells; assay: In vitro model of sphingolipidosis (Niemann-Pick mimic), microplate readout at 680 nm and 480 nm; format: cell-based
Excerpt: Stable cell lines derived from patients with Niemann-Pick disease can not be found in cell line repositories, such as American Type […] Collection (Manassas, Va.), and are not readily available to the research community. Consequently, an in vitro tissue culture model of sphingolipidosis was devised using 2R,3S,4E)-N-methyl-5-(4′pentylphenyl)-2-aminopent-4-ene-1,3-diol, designated SK1-I (BML-258), a potent, water soluble, isozyme-specific inhibitor of sphingosine kinase-1. […] U-2-OS human osteosarcoma cells were seeded at 22,500 cells/well, grown overnight, and then treated with a final concentration of 0, 2.5, 5, 10 or 20 μM of SK1-I for 18.5 hours. Next, the cells were briefly treated with compound 1 and the nuclear Hoechst 33342 dye, as described in Example 7. Fluorescence signal was read on a BioTek Synergy Mx microplate reader at excitation values of 340 and 540 nm and emission values of 480 and 680 nm. […] Fluorescence microscope-based examination of the wells confirmed that compound 1 staining of the cells was confined to the vacuolar structures. This in vitro model confirms the feasibility of using the assay for detecting aberrant accumulation of sphingolipids in cells, and by extension the feasibility of using the assay in monitoring inherited lysosomal storage diseases, such as Niemann-Pick disease.

[9] = test system: U2OS human osteosarcoma cells; assay: Fluorescence microscopy-based lysosomal perturbation assay (Dye 1 staining); format: cell-based; conditions: U2OS cells pre-treated with drug (chloroquine 8-64 μM, 18 hours), Dye 1 15 min
Method: (§1) U2OS human osteosarcoma cells were maintained in McCoy's 5a modified medium supplemented with 10% FBS and 100 units/ml penicillin/streptomycin (Invitrogen, Carlsbad, Calif.) in a humidified 37° C., 5% CO2 environment. Cells were allowed to proliferate on glass slides or were seeded into 96-well plates at a density of 2×10^4 cells/well and allowed to attach overnight. The cells were plated such that at the end of the experiment, they reached about 90% confluency.
The fluorescence-based lysosomal perturbation assay was established by first incubating cells cultivated on glass slides for 4-24 hours with chloroquine (8-64 μM final concentration), a well known phospholipidosis-inducing agent. Control cells were incubated with 0.1% (v/v) dimethyl sulfoxide (DMSO), which served as the vehicle control. Cells were then briefly (15 min) incubated with a combination of Dye 1 and Hoechst 33342 dye. Following incubation, cells grown on glass microscope slides were covered with glass coverslips, sealed with nail polish and observed using an inverted Axiovert 200M microscope (Carl Zeiss, Inc., Oberkochen, Germany). Images were acquired with a 63× objective lens (Zeiss).
Cells were subsequently stained with Dye 1 for 15 minutes. Nuclei were counter-stained with Hoechst 33342 dye. In FIG. 1, control U2OS cells are shown in (A), cells pre-treated for 18 hours with 8 μM chloroquine in (B), cells pre-treated for 18 hours with 16 μM chloroquine in (C) and cells pre-treated for 18 hours with 64 μM chloroquine in (D). This staining pattern was also consistently observed for other drugs that are known to induce phospholipidosis, such as chlorpromazine, fluoxetine, pimozide and verapamil (further described in Example 4). […] The ability of Dye 1 to detect vacuole accumulation in the described in vitro cell culture model mimicking Fabry disease strongly supports the present invention and its suitability for the detection of genetically derived lysosomal storage diseases.

[10] = test system: HeLa cells; assay: Fluorescence microscopy lysosomal perturbation assay with Dye 6; format: cell-based; conditions: chloroquine 120 μM for 6 hours, Dye 6 15 min
Method: as §1, with “HeLa” for “U2OS human osteosarcoma”, “Dulbecco's” for “McCoy's 5a”, “modified Eagles” for “modified”, “FBS,” for “FBS and”, “Calif.) and MEM non essential amino acids” for “Calif.)”, “slides” for “slides or were seeded into 96-well plates”
The fluorescence-based lysosomal perturbation assay was established by first incubating cells cultivated on glass slides for 6 hours with chloroquine (120 μM final concentration), a well known phospholipidosis-inducing agent. Control cells were incubated with 0.1% (v/v) dimethyl sulfoxide (DMSO), which served as the vehicle control. Cells were then briefly (15 min) incubated with Dye 6 at room temperature. Following incubation, cells grown on glass microscope slides were covered with glass coverslips, sealed with nail polish and observed using an Olympus BX51 microscope. Images were acquired with a 40× objective lens. […] The untreated cells gave a low level of fluorescent staining.

[11] = Homo sapiens, 18 h, read-out: EC50 (Dye 1-based assay)

SMILES: CO/C1=C\C(C)=C\[C@@H](C)[C@@H](O)[C@@H](C)C/C(C)=C/C=C/[C@H](OC)[C@@H]([C@@H](C)[C@@H](O)[C@H](C)[C@@]2(O)C[C@@H](O)[C@H](C)[C@@H](C(C)C)O2)OC1=O [Bafilomycin A1]
Relative Lyso Stain (intensity of Dye 1 fluorescence of treated cells compared to the untreated control) [1]: 176% | vacuolation / expansion of lysosomal compartment detected by Dye 1 assay [1]: increase vacuole number and volume | vacuolation / expansion of lysosomal compartment detected by Dye 1 assay ([1]; listed as bafilomycin A): increased vacuolation | EC50 ([1]; read-out: calculated EC50 value in Dye 1 based assay, 24 hours treatment, Dye 1 15 minutes post drug): 0.003 µM | Relative Hoechst Stain (intensity of Hoechst 33342 fluorescence of treated cells compared to the untreated control; number of cells remaining) [2]: 58% | generalized cellular toxicity (loss of cells / decrease in Hoechst 33342 signal) [2]: cytotoxic | vacuolation / expansion of lysosomal compartment detected by Lipid-Tox assay [3]: only Dye 1 identified the increased vacuolation | green signal (CF-PE) relative to vehicle-treated controls [4]: low green signal | red signal (Dye 1) relative to vehicle-treated controls [4]: increased red signal

fluorescence emission intensity and wavelength maximum versus pH [5]: not significantly altered
SMILES: CN(C)CCNc1c(F)c(F)c(NCCN(C)C)c2c1C(=O)c1c(O)ccc(O)c1C2=O [Dye 1, 1,4-bis(2-(dimethylamino)ethylamino)-2,3-difluoro-5,8-dihydroxyanthracene-9,10-dione]

SMILES: CN(C)CCCn1cc(C2=C(c3c[nH]c4ccccc34)C(=O)NC2=O)c2ccccc21 [GF-109203X]
Relative Lyso Stain (intensity of Dye 1 fluorescence of treated cells compared to the untreated control) [1]: 197% | Relative Hoechst Stain (intensity of Hoechst 33342 fluorescence of treated cells compared to the untreated control; number of cells remaining) [2]: 87%

SMILES: CC(C)NCC(O)COc1cccc2ccccc12 (stereo not drawn) [Propranolol (S-), Propranolol]
time to half maximum uptake [6]: 4 to 10 min | time to steady state of cellular uptake [6]: 40 to 60 min

Relative Hoechst Stain (intensity of Hoechst 33342 fluorescence of treated cells compared to the untreated control; number of cells remaining) [7]: 53%
SMILES: CCCCOc1cc(CC2CNC(=O)N2)ccc1OC (stereo not drawn) [Ro 20-1724]
Relative Lyso Stain (intensity of Dye 1 fluorescence of treated cells compared to the untreated control) [1]: 190%

SMILES: Cn1cc(C2=C(c3cn(CCCSC(=N)N)c4ccccc34)C(=O)NC2=O)c2ccccc21 [Ro 31-8220]
Relative Lyso Stain (intensity of Dye 1 fluorescence of treated cells compared to the untreated control) [1]: 146% | hit call in ICCB library screen (Dye 1 accumulation) [1]: positive hit | Relative Hoechst Stain (intensity of Hoechst 33342 fluorescence of treated cells compared to the untreated control; number of cells remaining) [2]: 89%

SMILES: CC(=O)c1c(O)c(C)c(O)c(Cc2c(O)c3c(c(C(=O)/C=C/c4ccccc4)c2O)OC(C)(C)C=C3)c1O [Rottlerin]
Relative Lyso Stain (intensity of Dye 1 fluorescence of treated cells compared to the untreated control) [1]: 187% | hit call in ICCB library screen (Dye 1 accumulation) [1]: false positive hit | Relative Hoechst Stain (intensity of Hoechst 33342 fluorescence of treated cells compared to the untreated control; number of cells remaining) [2]: 34% | generalized cellular toxicity (loss of cells / decrease in Hoechst 33342 signal) [2]: generally cytotoxic | generalized cellular toxicity (loss of cells / decrease in Hoechst 33342 signal) ([2]; listed as rottlerin): significant toxicity

Relative Hoechst Stain (intensity of Hoechst 33342 fluorescence of treated cells compared to the untreated control; number of cells remaining) [7]: 101%
SMILES: NC(=O)c1ccc(-c2nc(-c3ccc4c(c3)OCO4)c(-c3ccccn3)[nH]2)cc1 [SB-431542]
Relative Lyso Stain (intensity of Dye 1 fluorescence of treated cells compared to the untreated control) [1]: 154% | hit call in ICCB library screen (Dye 1 accumulation) [1]: positive hits

SMILES: CCCCCc1ccc(/C=C/[C@H](O)[C@@H](CO)NC)cc1 [SK1-I]
emission values at 680 nm (accumulation of sphingolipids within the vacuolar compartment) ([8]; U-2-OS, 0, 2.5, 5, 10 or 20 μM for 18.5 hours): Dose-dependent increases | cell viability (480 nm emission intensity from Hoechst dye) ([8]; U-2-OS, 0-20 μM for 18.5 hours): Cell viability was maintained under all treatment conditions

SMILES: CC(C)(C)c1cc(C=C(C#N)C#N)cc(C(C)(C)C)c1O [Tyrphostin 9]
Relative Lyso Stain (intensity of Dye 1 fluorescence of treated cells compared to the untreated control) [1]: 200% | Relative Hoechst Stain (intensity of Hoechst 33342 fluorescence of treated cells compared to the untreated control; number of cells remaining) [2]: 31%

EC50 [1, 11]: 15 µM
SMILES: CCN(CC)CCCC(C)Nc1ccnc2cc(Cl)ccc12 (stereo not drawn) [chloroquine]
punctate pattern of cytoplasmic staining / levels of Dye 1 in the cells [9]: increased in a dose-dependent manner | fluorescence intensity of lysosomal staining with Dye 6 [10]: increase in fluorescence intensity of lysosomal staining | vacuolation / expansion of lysosomal compartment detected by Dye 1 assay [1]: induced an expansion in the lysosomal compartment | vacuolation / expansion of lysosomal compartment detected by Lipid-Tox assay [3]: induced an expansion in the lysosomal compartment | green signal (CF-PE) relative to vehicle-treated controls [4]: increased green and red signal | red signal (Dye 1) relative to vehicle-treated controls [4]: increased green and red signal

EC50 [1, 11]: 6 µM
SMILES: CN(C)CCCN1c2ccccc2Sc2ccc(Cl)cc21 [chlorpromazine]
punctate pattern of cytoplasmic staining / levels of Dye 1 in the cells [9]: increased in a dose-dependent manner

SMILES: CNCCC(Oc1ccc(C(F)(F)F)cc1)c1ccccc1 (stereo not drawn) [fluoxetine]
punctate pattern of cytoplasmic staining / levels of Dye 1 in the cells [9]: increased in a dose-dependent manner | generalized cellular toxicity (loss of cells / decrease in Hoechst 33342 signal) [7]: toxic doses

SMILES: O=c1[nH]c2ccccc2n1C1CCN(CCCC(c2ccc(F)cc2)c2ccc(F)cc2)CC1 [pimozide]
generalized cellular toxicity (loss of cells / decrease in Hoechst 33342 signal) [7]: toxic doses

SMILES: COc1ccc(CCN(C)CCCC(C#N)(c2ccc(OC)c(OC)c2)C(C)C)cc1OC (stereo not drawn) [verapamil]
punctate pattern of cytoplasmic staining / levels of Dye 1 in the cells [9]: increased in a dose-dependent manner | EC50 [1, 11]: 30 µM
